Experimental data from ChEMBL document CHEMBL1201862, “PubChem BioAssay data set” (2004).
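Where inhibition never reached the appropriate level, the endpoint shown equals the highest concentration tested. Otherwise, values were interpolated linearly from a five-concentration, 48-hour dose response in 96-well plates. GI50 = concentration required for 50% inhibition of growth.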 The source made the active and inactive calls. No stated cut-off is given here; in the data, active = GI50 up to about 1.1 µM and inactive = higher.

What was measured:
Experiment in all cases: NCI anticancer screen, dose series, 48 h
CAKI-1 = system: CAKI-1
DU-145 = system: DU-145
EKVX = system: EKVX
HCT-116 = system: HCT-116
HL-60 = system: HL-60
K562 = system: K562
MCF7 = system: MCF7
MOLT-4 = system: MOLT-4
NCI-H460 = system: NCI-H460
OVCAR-3 = system: OVCAR-3
PC-3 = system: PC-3
RPMI-8226 = system: RPMI-8226
RXF 393 = system: RXF 393
SF-539 = system: SF-539
SK-MEL-2 = system: SK-MEL-2
TK-10 = system: TK-10
UACC-257 = system: UACC-257
UACC-62 = system: UACC-62
OVCAR-4 = system: OVCAR-4

SMILES	GI50 (CAKI-1)	GI50 (DU-145)	GI50 (EKVX)	GI50 (HCT-116)	GI50 (HL-60)	GI50 (K562)	GI50 (MCF7)	GI50 (MOLT-4)	GI50 (NCI-H460)	GI50 (OVCAR-3)	GI50 (PC-3)	GI50 (RPMI-8226)	GI50 (RXF 393)	GI50 (SF-539)	GI50 (SK-MEL-2)	GI50 (TK-10)	GI50 (UACC-257)	GI50 (UACC-62)	GI50 (OVCAR-4)
CN(C)CCn1c(=O)oc2cc(C(=O)CN3CCOCC3)ccc21	> 100 µM (inactive)	> 100 µM (inactive)	> 100 µM (inactive)	> 100 µM (inactive)	> 100 µM (inactive)	> 100 µM (inactive)	> 100 µM (inactive)	> 100 µM (inactive)	> 100 µM (inactive)	> 100 µM (inactive)	> 100 µM (inactive)	> 100 µM (inactive)	> 100 µM (inactive)	> 100 µM (inactive)	> 100 µM (inactive)	> 100 µM (inactive)	> 100 µM (inactive)	> 100 µM (inactive)	
C1=N\CCN2CCN(CC/N=C\c3ccc(cc3)OCc3cccc(n3)COc3ccc/1cc3)CC2		> 50 µM (inactive)	> 50 µM (inactive)	> 50 µM (inactive)	> 50 µM (inactive)	> 50 µM (inactive)	> 50 µM (inactive)	> 50 µM (inactive)	> 50 µM (inactive)	28.8 µM (inactive)	> 50 µM (inactive)	> 50 µM (inactive)	11.6 µM (inactive)	> 50 µM (inactive)	> 50 µM (inactive)	> 50 µM (inactive)	> 50 µM (inactive)	> 50 µM (inactive)	> 50 µM (inactive)
C#C/C=C\CCCCCCCCCCCCCC/C=C\CCCCC#CC(O)C#CCCCC/C=C\CCCCCC/C=C/C(O)C#C (configuration not stated)	7.69 µM (inactive)	30.9 µM (inactive)	17 µM (inactive)	4.67 µM (inactive)	13 µM (inactive)	23.8 µM (inactive)	5.62 µM (inactive)	10.1 µM (inactive)	39.9 µM (inactive)	32.2 µM (inactive)	19.1 µM (inactive)		15.8 µM (inactive)	29.6 µM (inactive)	12.9 µM (inactive)	21.6 µM (inactive)	27 µM (inactive)	11.8 µM (inactive)	6.38 µM (inactive)
CCOC(=O)/C(=N\Nc1ccc(-n2c(C)nc3ccc(Br)cc3c2=O)cc1)C(C)=O	> 100 µM (inactive)	> 100 µM (inactive)	72.1 µM (inactive)	43.6 µM (inactive)	5.32 µM (inactive)	35.2 µM (inactive)	50.4 µM (inactive)	25.2 µM (inactive)	99.3 µM (inactive)	> 100 µM (inactive)	44.6 µM (inactive)	16.4 µM (inactive)		38.8 µM (inactive)	70 µM (inactive)	60.3 µM (inactive)	84.5 µM (inactive)	46.9 µM (inactive)	
Clc1cc(Cl)nc(Nc2ccc3c(c2)CCC3)n1	28.2 µM (inactive)	61.2 µM (inactive)	20 µM (inactive)	28.6 µM (inactive)	36.7 µM (inactive)	20.6 µM (inactive)	20.5 µM (inactive)	13.8 µM (inactive)	30.4 µM (inactive)	32 µM (inactive)	61.9 µM (inactive)	16.5 µM (inactive)		> 100 µM (inactive)	45 µM (inactive)	18.1 µM (inactive)	42 µM (inactive)	46.1 µM (inactive)	61.2 µM (inactive)
COc1cc2c(c(OC)c1OC)-c1ccc(SC)cc1[C@H](OC(=O)c1ccccc1)CC2	0.407 µM (active)	0.203 µM (active)	0.155 µM (active)	0.0817 µM (active)	0.146 µM (active)	0.0849 µM (active)	0.0311 µM (active)	0.151 µM (active)	0.149 µM (active)	0.199 µM (active)	0.0673 µM (active)	0.0424 µM (active)	0.0334 µM (active)	0.0369 µM (active)	> 100 µM (inactive)	> 100 µM (inactive)	> 100 µM (inactive)	0.0753 µM (active)	
CC(C)=C[C@@H]1C[C@H](C)c2c(O)cc(C)c3c2C1=C(C)C(=O)C3=O [ELISABATIN A]	16.6 µM (inactive)	15.3 µM (inactive)	14.3 µM (inactive)	15.2 µM (inactive)	21.9 µM (inactive)	17.2 µM (inactive)	22.8 µM (inactive)	28.6 µM (inactive)	18 µM (inactive)	14.5 µM (inactive)	10.5 µM (inactive)	18.2 µM (inactive)		17.9 µM (inactive)		22.3 µM (inactive)	17.6 µM (inactive)	14.7 µM (inactive)	10.9 µM (inactive)
CN(C)C(=O)Oc1ccc[n+](C)c1 [PYRIDOSTIGMINE BROMIDE]	> 100 µM (inactive)	> 100 µM (inactive)	> 100 µM (inactive)	> 100 µM (inactive)	> 100 µM (inactive)	> 100 µM (inactive)	> 100 µM (inactive)	> 100 µM (inactive)	> 100 µM (inactive)	> 100 µM (inactive)	> 100 µM (inactive)	> 100 µM (inactive)	> 100 µM (inactive)		> 100 µM (inactive)	> 100 µM (inactive)	> 100 µM (inactive)	> 100 µM (inactive)	> 100 µM (inactive)
